Data reported in paper PMC7034945 (RSC Advances, 2019).

Test system: HIV-1 NL4-3 virus
Assay: Anti-HIV-1 activity, multicycle assay with HIV-1 NL4-3 in TZM-bl cells
Format: cell-based
Conditions: for EC50: Human immunodeficiency virus 1, NL43, TZM-bl; for SI (selectivity index, ratio of CC50/EC50): Table 1, TZM-bl cells

Compound | EC50 [µM] | SI (selectivity index, ratio of CC50/EC50)
COc1ccc(N(C)C(=O)[C@H](Cc2cc(F)cc(F)c2)NC(=O)c2cn(Cc3ccc(C)cc3)nn2)cc1 [I-8c, (S)-N-(3-(3,5-Difluorophenyl)-1-((4-methoxyphenyl)(methyl)amino)-1-oxopropan-2-yl)-1-(4-methylbenzyl)-1H-1,2,3-triazole-4-carboxamide] | 10.6 ± 3.46 | >1.82
COc1ccc(N(C)C(=O)[C@H](Cc2cc(F)cc(F)c2)NC(=O)c2cn(Cc3ccc(Cl)cc3)nn2)cc1 [I-8f, (S)-1-(4-chlorobenzyl)-N-(3-(3,5-difluorophenyl)-1-((4-methoxyphenyl)(methyl)amino)-1-oxopropan-2-yl)-1H-1,2,3-triazole-4-carboxamide] | 8.7 ± 1.65 | >2.13
COc1ccc(N(C)C(=O)[C@H](Cc2cc(F)cc(F)c2)NC(=O)c2cn(Cc3cccc(C#N)c3)nn2)cc1 [I-8h, (S)-1-(3-Cyanobenzyl)-N-(3-(3,5-difluorophenyl)-1-((4-methoxyphenyl)(methyl)amino)-1-oxopropan-2-yl)-1H-1,2,3-triazole-4-carboxamide] | 3.58 ± 0.64 | >5.27
COc1ccc(N(C)C(=O)[C@H](Cc2cc(F)cc(F)c2)NC(=O)c2cn(Cc3ccc(C#N)cc3)nn2)cc1 [I-8i, (S)-1-(4-Cyanobenzyl)-N-(3-(3,5-difluorophenyl)-1-((4-methoxyphenyl)(methyl)amino)-1-oxopropan-2-yl)-1H-1,2,3-triazole-4-carboxamide] | 5.84 ± 1.53 | >3.23

Continued, in another order:

EC50 [µM] | Compound | SI (selectivity index, ratio of CC50/EC50)
8.85 ± 2.69 | COc1ccc(N(C)C(=O)[C@H](Cc2cc(F)cc(F)c2)NC(=O)c2cn(Cc3ccccc3C)nn2)cc1 [I-8a, (S)-N-(3-(3,5-Difluorophenyl)-1-((4-methoxyphenyl)(methyl)amino)-1-oxopropan-2-yl)-1-(2-methylbenzyl)-1H-1,2,3-triazole-4-carboxamide] | >2.18
9.43 ± 2.31 | COc1ccc(N(C)C(=O)[C@H](Cc2cc(F)cc(F)c2)NC(=O)c2cn(Cc3cccc(C)c3)nn2)cc1 [I-8b, (S)-N-(3-(3,5-Difluorophenyl)-1-((4-methoxyphenyl)(methyl)amino)-1-oxopropan-2-yl)-1-(3-methylbenzyl)-1H-1,2,3-triazole-4-carboxamide] | >2.04
9.63 ± 2.04 | COc1ccc(N(C)C(=O)[C@H](Cc2cc(F)cc(F)c2)NC(=O)c2cn(Cc3ccccc3Cl)nn2)cc1 [I-8d, (S)-1-(2-Chlorobenzyl)-N-(3-(3,5-difluorophenyl)-1-((4-methoxyphenyl)(methyl)amino)-1-oxopropan-2-yl)-1H-1,2,3-triazole-4-carboxamide] | >1.92
8.33 ± 1.41 | COc1ccc(N(C)C(=O)[C@H](Cc2cc(F)cc(F)c2)NC(=O)c2cn(Cc3cccc(Cl)c3)nn2)cc1 [I-8e, (S)-1-(3-Chlorobenzyl)-N-(3-(3,5-difluorophenyl)-1-((4-methoxyphenyl)(methyl)amino)-1-oxopropan-2-yl)-1H-1,2,3-triazole-4-carboxamide] | >2.22
9.61 ± 2.07 | COc1ccc(N(C)C(=O)[C@H](Cc2cc(F)cc(F)c2)NC(=O)c2cn(Cc3ccccc3C#N)nn2)cc1 [I-8g, (S)-1-(2-Cyanobenzyl)-N-(3-(3,5-difluorophenyl)-1-((4-methoxyphenyl)(methyl)amino)-1-oxopropan-2-yl)-1H-1,2,3-triazole-4-carboxamide] | >1.96
3.27 ± 0.78 | COc1ccc(N(C)C(=O)[C@H](Cc2cc(F)cc(F)c2)NC(=O)c2cn(Cc3ccccc3[N+](=O)[O-])nn2)cc1 [I-8j, (S)-N-(3-(3,5-Difluorophenyl)-1-((4-methoxyphenyl)(methyl)amino)-1-oxopropan-2-yl)-1-(2-nitrobenzyl)-1H-1,2,3-triazole-4-carboxamide] | >5.55
